Patent US5114961A, “2,5-diaryl tetrahydrofurans and analogs thereof as PAF antagonists” (Merck & Co., Inc., priority 1990, dated 1992)

The molecules below were run against T1, PAF specific receptor binding site (human platelet membranes) (Homo sapiens, UniProt P25105) (assay: Inhibition of [3H]N-methylcarbamoyl-PAF binding to human platelet membranes). Conditions: drug concentration of 3 nM, trans configuration.
T1 construct: platelet membranes at a drug concentration of 3 nM; from tissue; host or cells: human platelet plasma membranes
T1 sequence (P25105 whole entry): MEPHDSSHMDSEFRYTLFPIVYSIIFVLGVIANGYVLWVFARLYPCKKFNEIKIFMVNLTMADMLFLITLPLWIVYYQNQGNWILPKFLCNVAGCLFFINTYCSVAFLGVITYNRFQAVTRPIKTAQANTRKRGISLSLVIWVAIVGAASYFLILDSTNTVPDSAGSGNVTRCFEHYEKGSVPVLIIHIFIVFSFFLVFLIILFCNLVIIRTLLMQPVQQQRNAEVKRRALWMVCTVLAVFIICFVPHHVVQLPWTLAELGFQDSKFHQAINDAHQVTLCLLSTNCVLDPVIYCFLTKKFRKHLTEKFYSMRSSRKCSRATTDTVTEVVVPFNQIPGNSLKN
Method: The ability of a compound of formula (I) to inhibit the PAF binding to its specific receptor binding site on rabbit or human platelet or PMN plasma membranes was measured by a recently developed assay.
The inhibition of ^3 [H]-PAF or ^3 [H]-N-methyl carbamoyl-TAF binding to the human or rabbit platelet or PMN plasma membrane by a PAF antagonist of formula (I) was determined by a method employing isotopic labeling and filtration techniques. Generally, a series of Tris-buffered solutions of the selected antagonist at predetermined concentrations were prepared. Each of these solutions contains 1 pmole of ^3 H-PAF, a known amount of the test antagonist, and a sufficient amount of the pH 7.5 Tris-buffer solution (10mM Tris, 0.25% bovine serum albumin, and 150 mM NaCl per ml water) to make the final volume of 1 ml. After adding into a set of test tubes each with 100 μg of the platelet plasma membrane suspension (S. B. Hwang, et. al., Biochemistry, Vol. 22 pp. 4756-4763, 1983) and one of the Tris-buffer solutions described above, the resulting mixture in each test tube was incubated at 0° C. for about one hours or until the reaction was complete. Two control samples, one of which (C1) contains all the ingredients described above except the antagonist and the other (C2) contains C1 plus a 100-fold excess of unlabeled PAF, were also prepared and incubated simultaneously with the test samples. After the incubation was completed, the contents of each test tube were filtered under vacuo through a Whatman GF/C fiberglass filter and the residue washed rapidly several times with a total of 20 ml cold (0°-5° C.) Tris-buffer solution. Each washed residue was then suspended in 10 ml scintillation solution (Aquasol 2, New England Nuclear, Conn.) and the radioactivity was counted in a Packard Tri-Carb 460CD Liquid Scintillation System. Defining the counts from a test sample as "Total binding with antagonist"; the counts from the control sample C1, as "Total binding C1 "; and the counts from the control sample C2 as "non-specific binding C2 ", the percent inhibition of each test antagonist can be determined by the following equations: [formula]
`CCCS(=O)(=O)c1cc([C@@H]2CC[C@@H](c3cc(OC)c(OC)c(OC)c3)O2)cc(OC)c1OCCSc1ncc[nH]1` (relative stereo) [trans-2-[3-n-Propylsulfonyl-4-{2-(2-imidazolthio)ethoxy}-5-methoxyphenyl]-5-(3,4,5-trimethoxyphenyl) tetrahydrofuran] was tested, and the inhibition at 0.003 µM was 60%.
In the case of `CCCS(=O)(=O)c1cc([C@@H]2CC[C@@H](c3cc(OC)c(OC)c(OC)c3)O2)cc(OC)c1OCCSc1nc[nH]n1` (relative stereo) [trans-2-[3-n-Propylsulfonyl-4-{2-(3-triazolthio)ethoxy}-5-methoxyphenyl]-5-(3,4,5-trimethoxyphenyl) tetrahydrofuran], the inhibition at 0.003 µM is reported as 23%.
`CCCS(=O)(=O)c1cc([C@@H]2CC[C@@H](c3cc(OC)c(OC)c(OC)c3)O2)cc(OC)c1OCCSc1ccc(-c2nn[nH]n2)cc1` (relative stereo) [trans-2-[3-n-Propylsulfonyl-4-{2-(4-(2-tetrazo)phenylthio)ethoxy}-5-methoxyphenyl]-5-(3,4,5-trimethoxyphenyl)tetrahydrofuran] showed an inhibition at 0.003 µM of 52%.
Molecule `CCCS(=O)(=O)c1cc([C@H]2CC[C@H](c3cc(OC)c(OC)c(OC)c3)O2)cc(OC)c1OCCSc1ccc(C(=N)N)cc1` (relative stereo) [trans-2-[3-n-Propylsulfonyl-4-{2-(4-amidinophenylthio)ethoxy}-5-methoxyphenyl]-5-(3,4,5-trimethoxyphenyl)tetrahydrofuran] has an inhibition at 0.003 µM of 60%.
Molecule `CCCS(=O)(=O)c1cc([C@H]2CC[C@H](c3cc(OC)c(OC)c(OC)c3)O2)cc(OC)c1OCCSc1ccc(C#N)cc1` (relative stereo) [trans-2-[3-n-Propylsulfonyl-4-{2-(4-cyanophenylthio)ethoxy}-5-methoxyphenyl]-5-(3,4,5-trimethoxyphenyl) tetrahydrofuran] has an inhibition at 0.003 µM of 93%.
`CCCS(=O)(=O)c1cc([C@H]2CC[C@H](c3cc(OC)c(OC)c(OC)c3)O2)cc(OC)c1OCCSc1ccc(N(C)C)cc1` (relative stereo) [trans-2-[3-n-Propylsulfonyl-4-{2-(4-dimethylaminophenylthio)ethoxy}-5-methoxyphenyl]-5-(3,4,5-trimethoxyphenyl)tetrahydrofuran] was tested, and the inhibition at 0.003 µM was 66%.
Molecule `CCCS(=O)(=O)c1cc([C@H]2CC[C@H](c3cc(OC)c(OC)c(OC)c3)O2)cc(OC)c1OCCSc1ccncc1` (relative stereo) [trans-2-[3-n-Propylsulfonyl-4-{2-(4-pyridylthio)ethoxy}-5-methoxyphenyl]-5-(3,4,5-trimethoxyphenyl) tetrahydrofuran] has an inhibition at 0.003 µM of 73%.
In the case of `CCCS(=O)(=O)c1cc([C@@H]2CC[C@@H](c3cc(OC)c(OC)c(OC)c3)O2)cc(OC)c1OCCS(=O)(=O)c1ccccc1` (relative stereo) [trans-2-[3-n-Propylsulfonyl-4-{2-(Phenylsulfonyl)ethoxy}-5-methoxyphenyl]-5-(3,4,5-trimethoxyphenyl(tetrahydrofuran], the inhibition at 0.003 µM is reported as 73%.
For `CCCS(=O)(=O)c1cc([C@@H]2CC[C@@H](c3cc(OC)c(OC)c(OC)c3)O2)cc(OCCCN2CCOCC2)c1OCCCCCCO` (relative stereo) [trans-2-]3-n-Propylsulfonyl-4-(6-hydroxyhexyloxy)-5-{3-(1-morpholino)n-propoxy}phenyl]-5-trimethoxyphenyl)tetrahydrofuran], the inhibition at 0.003 µM was 48%.
In the case of `CCCOc1c(OCCCc2cccnc2)cc([C@H]2CC[C@H](c3cc(OC)c(OC)c(OC)c3)O2)cc1S(=O)(=O)CC(C)=O` (relative stereo) [trans-2-{3-(2-Oxopropylsulfonyl)-4-n-propoxy-5-[3-(3-pyridyl)propoxy}phenyl]-5-(3,4,5-trimethoxyphenyl) tetrahydrofuran], the inhibition at 0.003 µM is reported as 62%.
In the case of `CCCOc1c(OCCCN2CCOCC2)cc([C@@H]2CC[C@@H](c3cc(OC)c(OC)c(OC)c3)O2)cc1S(=O)(=O)CC(C)=O` [(-)-(2S,5S)-[3-(2-Oxopropylsulfonyl)-4-n-propoxy-5-{3-(1-morpholino)-n-propoxy}phenyl]-5-(3,4,5-trimethoxyphenyl)tetrahydrofuran], the inhibition at 0.003 µM is reported as 41%.
